Publication PMC4016139, “Inhibition of K^+ Transport through Na^+, K^+-ATPase by Capsazepine: Role of Membrane Span 10 of the α-Subunit in the Modulation of Ion Gating” (PLoS ONE, 2014)

Test system: T1, Na+,K+-ATPase of adult rat ventricular myocytes
T1 construct: gene Atp1a1; native pump in isolated adult male ventricular myocytes, whole-cell patch clamp; with Sodium/potassium-transporting ATPase subunit beta-1
Assay: whole-cell ruptured-patch pump current (K+-dependent Ip)
Type: cell-based
Details: 10 min perfusion, 5 mM external K+, 140 mM NaCl, pH 7.2, 35 °C

For `Oc1cc2c(cc1O)CN(C(=S)NCCc1ccc(Cl)cc1)CCC2` [Capsazepine], the “% inhibition at 30 μM” value was 85%.
